In publication PMC4012464, “Design, Synthesis and Biological Evaluation of Tasiamide Analogues as Tumor Inhibitors” (Marine Drugs, 2014):
Where two headings read alike, the source gives them in different places. Non-standard residues stand in square brackets, D forms with d. Residues, ends and D or L forms follow the SMILES beside them. *: point of attachment. Pentanoyl(2S-OH,3S-Me) = CC[C@H](C)[C@H](O)C(=O)*; Tetrahydroisoquinolin(2-yl) = c1ccc2c(c1)CCN(*)C2; dNMeF = CN[C@H](Cc1ccccc1)C(=O)O; NMeQ = CN[C@@H](CCC(N)=O)C(=O)O; Tic = O=C(O)[C@@H]1Cc2ccccc2CN1; X1 = CN(C)[C@H](CCC(N)=O)C(=O)*; dNMeQ = CN[C@H](CCC(N)=O)C(=O)O; NMeA = CN[C@@H](C)C(=O)O; Pentanoyl = CCCCC(=O)*; NHBn = c1ccc(CN*)cc1; Glycolyl = O=C(CO)*; NHPh = c1ccc(N*)cc1; OBn = c1ccc(CO*)cc1

Experiments:
[1] = system: A549, human non-small cell lung tumor cell line; experiment: cells; assay type: cell-based; conditions: growth inhibition after 72 h of drug exposure, SRB staining, A515, means ± standard deviation from three independent experiments, read-out: In vitro inhibitory activity IC50, A549
Method: (§1) All of the prepared analogues (S1–S4, C1–C9, N1–N2, M1–M3) were tested for their in vitro anticancer activities against KB and A549 cell lines. Briefly, cells were seeded into 96-well plates and cultured overnight, treated with tested samples for 72 h. Then, the cells were fixed with 10% trichloroacetic acid (100 µL) and stained with sulforhodamine B (Sigma, St. Louis, MO, USA). The sulforhodamine B (100 µL) in the cells was dissolved in 10 mmol/L Tris-HCl (150 µL) and measured at 515 nm using a multiwell spectrophotometer (VERSAmax, Molecular Devices, Sunnyvale, CA, USA). The inhibition rate on cell proliferation was calculated for each well as (A515control cells − A515treated cells)/A515control cells × 100% (A515: optical density value at 515 nm). The average IC50 values were determined by the Logit method from at least three independent tests.

[2] = system: KB, human nasopharyngeal carcinoma cell line; experiment: cells; assay type: cell-based; conditions: growth inhibition after 72 h of drug exposure, SRB staining, A515, means ± standard deviation from three independent experiments, read-out: In vitro inhibitory activity IC50, KB
Method: as §1

[3] = system: human colon carcinoma (LoVo) cell line; conditions: natural product isolated from Symploca sp.; cited from earlier work
Description: (§2) Marine cyanobacteria are a well-known prolific source of novel bioactive compounds [1, 2, 3], most of which are linear or cyclic (depsi)peptides with distinctive structures. […] The first total synthesis of tasiamide was reported by our group in 2008.

[4] = system: human nasopharyngeal carcinoma (KB) cell line; conditions: natural product isolated from Symploca sp.; cited from earlier work
Description: as §2

SMILES	IC50 [1] [µM]	IC50 [2] [µM]	Cytotoxicity IC50, LoVo [3] [µg/mL]	Cytotoxicity IC50, KB [4] [µg/mL]	IC50 ([1]; Homo sapiens) [µM]	IC50 ([2]; Homo sapiens) [µM]
CC[C@H](C)[C@H](O)C(=O)N[C@@H](CC(C)C)C(=O)N(C)[C@H](CCC(N)=O)C(=O)N[C@H](C(=O)NCC(=O)N(C)[C@H](Cc1ccccc1)C(=O)Nc1ccccc1)[C@@H](C)CC [Compound C2, HO-Hmp-Leu-N-Me-D-Gln-Ile-Gly-N-Me-D-Phe-NH-Ph] ({Pentanoyl(2S-OH,3S-Me)}-L[dNMeQ]IG[dNMeF]-NHPh)	> 50	8.26 ± 1.22				
CC[C@H](C)[C@H](O)C(=O)N[C@@H](CC(C)C)C(=O)N[C@H](CCC(N)=O)C(=O)N[C@H](C(=O)NCC(=O)N[C@H](Cc1ccccc1)C(=O)NCc1ccccc1)[C@@H](C)CC [Compound M3, HO-Hmp-Leu-D-Gln-Ile-Gly-D-Phe-NH-Bn] ({Pentanoyl(2S-OH,3S-Me)}-L[dQ]IG[dF]-NHBn)	> 50	> 50				
CCCCC(=O)N[C@@H](CC(C)C)C(=O)N(C)[C@H](CCC(N)=O)C(=O)N[C@H](C(=O)NCC(=O)N(C)[C@H](Cc1ccccc1)C(=O)NCc1ccccc1)[C@@H](C)CC [Compound N1, n-Pentanoyl-Leu-N-Me-D-Gln-Ile-Gly-N-Me-D-Phe-NH-Bn] (Pentanoyl-L[dNMeQ]IG[dNMeF]-NHBn)	> 50	> 50				
CC[C@H](C)[C@H](O)C(=O)N[C@@H](CC(C)C)C(=O)N(C)[C@H](CCC(N)=O)C(=O)N[C@H](C(=O)NCC(=O)OCc1ccccc1)[C@@H](C)CC [Compound S4, HO-Hmp-Leu-N-Me-D-Gln-Ile-Gly-OBn] ({Pentanoyl(2S-OH,3S-Me)}-L[dNMeQ]IG-OBn)	> 50	> 50				
CC[C@H](C)[C@H](O)C(=O)N[C@@H](CC(C)C)C(=O)N(C)[C@H](CCC(N)=O)C(=O)N[C@H](C(=O)NCC(=O)N(C)[C@H](Cc1ccccc1)C(=O)NCc1ccccc1)[C@@H](C)CC [Compound C4, HO-Hmp-Leu-N-Me-D-Gln-Ile-Gly-N-Me-D-Phe-NH-Bn] ({Pentanoyl(2S-OH,3S-Me)}-L[dNMeQ]IG[dNMeF]-NHBn)	8.48 ± 1.39	1.29 ± 0.31				
CC[C@H](C)[C@H](O)C(=O)N[C@@H](CC(C)C)C(=O)N(C)[C@H](CCC(N)=O)C(=O)N[C@H](C(=O)NCC(=O)N(C)[C@H](Cc1ccccc1)C(=O)N1CCC[C@H]1C(=O)OC)[C@@H](C)CC [Compound T2, tasiamide] ({Pentanoyl(2S-OH,3S-Me)}-L[dNMeQ]IG[dNMeF]P-OMe)	> 50	0.58 ± 0.07	3.47	0.48		
CC[C@H](C)[C@H](O)C(=O)N[C@@H](CC(C)C)C(=O)N(C)[C@@H](CCC(N)=O)C(=O)N[C@H](C(=O)NCC(=O)N(C)[C@H](Cc1ccccc1)C(=O)N1CCc2ccccc2C1)[C@@H](C)CC [Compound C7, HO-Hmp-Leu-N-Me-Gln-Ile-Gly-N-Me-D-Phe-NH-TIQ] ({Pentanoyl(2S-OH,3S-Me)}-L[NMeQ]IG[dNMeF]-{Tetrahydroisoquinolin(2-yl)})	3.67 ± 0.66	3.8 ± 0.46				
CC[C@H](C)[C@H](O)C(=O)N[C@@H](CC(C)C)C(=O)N(C)[C@@H](CCC(N)=O)C(=O)N[C@H](C(=O)NCC(=O)N(C)[C@H](Cc1ccccc1)C(=O)Nc1ccccc1)[C@@H](C)CC [Compound C1, HO-Hmp-Leu-N-Me-Gln-Ile-Gly-N-Me-D-Phe-NH-Ph] ({Pentanoyl(2S-OH,3S-Me)}-L[NMeQ]IG[dNMeF]-NHPh)	4.17 ± 0.51	3.21 ± 0.6				
CC[C@H](C)[C@H](O)C(=O)N[C@@H](CC(C)C)C(=O)N(C)[C@@H](CCC(N)=O)C(=O)N[C@H](C(=O)NCC(=O)N(C)[C@H](Cc1ccccc1)C(=O)NCc1ccccc1)[C@@H](C)CC [Compound C3, HO-Hmp-Leu-N-Me-Gln-Ile-Gly-N-Me-D-Phe-NH-Bn] ({Pentanoyl(2S-OH,3S-Me)}-L[NMeQ]IG[dNMeF]-NHBn)	2.24 ± 0.44	2.08 ± 0.33				
CC[C@H](C)[C@H](O)C(=O)N[C@@H](CC(C)C)C(=O)N(C)[C@H](CCC(N)=O)C(=O)N[C@H](C(=O)NCC(=O)N(C)[C@H](Cc1ccccc1)C(=O)N1CCc2ccccc2C1)[C@@H](C)CC [Compound C8, HO-Hmp-Leu-N-Me-D-Gln-Ile-Gly-N-Me-D-Phe-NH-TIQ] ({Pentanoyl(2S-OH,3S-Me)}-L[dNMeQ]IG[dNMeF]-{Tetrahydroisoquinolin(2-yl)})	> 50	3.64 ± 0.55				
CC[C@H](C)[C@H](NC(=O)[C@@H](CCC(N)=O)N(C)C)C(=O)NCC(=O)N(C)[C@H](Cc1ccccc1)C(=O)N1CCC[C@H]1C(=O)OC [Compound S1, N,N-Me2-D-Gln-Ile-Gly-N-Me-D-Phe-Pro-OMe] (X1-IG[dNMeF]P-OMe)	> 50	> 50				
CC[C@H](C)[C@H](O)C(=O)N[C@@H](CC(C)C)C(=O)N[C@H](CCC(N)=O)C(=O)N[C@H](C(=O)NCC(=O)N(C)[C@H](Cc1ccccc1)C(=O)NCc1ccccc1)[C@@H](C)CC [Compound M1, HO-Hmp-Leu-D-Gln-Ile-Gly-N-Me-D-Phe-NH-Bn] ({Pentanoyl(2S-OH,3S-Me)}-L[dQ]IG[dNMeF]-NHBn)	> 50	> 50				
CC[C@H](C)[C@H](O)C(=O)N[C@@H](CC(C)C)C(=O)N(C)[C@H](CCC(N)=O)C(=O)N[C@H](C(=O)NCC(=O)N(C)[C@H](Cc1ccccc1)C(=O)N1Cc2ccccc2C[C@H]1C(=O)OC)[C@@H](C)CC [Compound C6, HO-Hmp-Leu-N-Me-D-Gln-Ile-Gly-N-Me-D-Phe-NH-MTC] ({Pentanoyl(2S-OH,3S-Me)}-L[dNMeQ]IG[dNMeF][Tic]-OMe)	12.9 ± 1.32	8.52 ± 1.41				
CC[C@H](C)[C@H](O)C(=O)N[C@@H](CC(C)C)C(=O)N(C)[C@@H](CCC(N)=O)C(=O)N[C@H](C(=O)NCC(=O)N(C)[C@H](Cc1ccccc1)C(=O)N1Cc2ccccc2C[C@H]1C(=O)OC)[C@@H](C)CC [Compound C5, HO-Hmp-Leu-N-Me-Gln-Ile-Gly-N-Me-D-Phe-NH-MTC] ({Pentanoyl(2S-OH,3S-Me)}-L[NMeQ]IG[dNMeF][Tic]-OMe)	5.24 ± 1.12	2.45 ± 0.41				
CC[C@H](C)[C@H](NC(=O)[C@@H](CCC(N)=O)N(C)C(=O)[C@H](CC(C)C)NC(=O)CO)C(=O)NCC(=O)N(C)[C@H](Cc1ccccc1)C(=O)NCc1ccccc1 [Compound N2, 2-Hydroxyacetyl-Leu-N-Me-D-Gln-Ile-Gly-N-Me-D-Phe-NH-Bn] (Glycolyl-L[dNMeQ]IG[dNMeF]-NHBn)	> 50	> 50				
CC[C@H](C)[C@H](O)C(=O)N[C@@H](CC(C)C)C(=O)N(C)[C@H](CCC(N)=O)C(=O)N[C@H](C(=O)NCC(=O)N[C@H](Cc1ccccc1)C(=O)NCc1ccccc1)[C@@H](C)CC [Compound M2, HO-Hmp-Leu-N-Me-D-Gln-Ile-Gly-D-Phe-NH-Bn] ({Pentanoyl(2S-OH,3S-Me)}-L[dNMeQ]IG[dF]-NHBn)	> 50	> 50				
CC[C@H](C)[C@H](O)C(=O)N[C@@H](CC(C)C)C(=O)N(C)[C@H](CCC(N)=O)C(=O)N[C@H](C(=O)OCc1ccccc1)[C@@H](C)CC [Compound S3, HO-Hmp-Leu-N-Me-D-Gln-Ile-OBn]	> 50	> 50				
CC[C@H](C)[C@H](O)C(=O)N[C@@H](CC(C)C)C(=O)N(C)[C@@H](C)C(=O)N[C@H](C(=O)NCC(=O)N(C)[C@H](Cc1ccccc1)C(=O)NCc1ccccc1)[C@@H](C)CC [Compound C9, HO-Hmp-Leu-N-Me-Ala-Ile-Gly-N-Me-D-Phe-NH-Bn] ({Pentanoyl(2S-OH,3S-Me)}-L[NMeA]IG[dNMeF]-NHBn)	> 50	> 50				
CC[C@H](C)[C@@H](C(=O)NCC(=O)N(C)[C@H](Cc1ccccc1)C(=O)N1CCC[C@H]1C(=O)OC)N(C)C [Compound S2, N,N-Me2-Ile-Gly-N-Me-D-Phe-Pro-OMe]	> 50	> 50				
COc1cc([C@@H]2c3cc4c(cc3[C@@H](O[C@@H]3O[C@@H]5CO[C@@H](C)O[C@H]5[C@H](O)[C@H]3O)[C@H]3COC(=O)[C@H]23)OCO4)cc(OC)c1O [Etoposide, etoposide, reference compound]					0.99 ± 0.09	0.85 ± 0.08
